These results are taken from PMC9186362, “Design and biological evaluation of substituted 5,7-dihydro-6H-indolo[2,3-c]quinolin-6-one as novel selective Haspin inhibitors” (Journal of Enzyme Inhibition and Medicinal Chemistry, 2022).

Broadly, the IC50 is the concentration needed to halve the response being measured. In general, melting point refers to the temperature of the solid-liquid transition. A word on the EC50: it is the midpoint of the concentration-response curve.

In one data set the test system is U-2 OS cells. Briefly: Cell cycle analysis by flow cytometry. Type of data set: cell-based, human. The conditions noted are these: 1 µM, 24 h. The procedure:
After treatment with the compounds, cells were trypsinized and washed once in PBS. Cells were fixed for 1 h in ice-cold 70% ethanol, then washed once in PBS, centrifuged at 200 g and resuspended in a PBS buffer containing 100 µg/ml RNase A (Thermo Scientific) and 40 µg/ml propidium iodide (Life Technologies). DNA content was determined using a flow cytometer Attune^TM NxT (Thermofisher) and ten thousand events were collected in each run. The data were analysed using FCS Express 7 Pro software (De Novo).
(A flow cytometer gives signals particle by particle.)

On the set-up of data set [1]: method as in PMID 22305342. The conditions noted are these: cited from earlier work.
The next data set deals with RnDYRK1A (Rattus norvegicus, UniProt Q63470). Briefly: ADP-Glo kinase assay. It is filed as biochemical, Rattus norvegicus (Rn). The conditions noted are these: for Selectivity index DYRK/Haspin: IC50 DYRK1A/IC50 Haspin; for IC50: dose-response curve, each point in duplicate, read-out: Kinase inhibition (IC50) DYRK1A; for remaining activity: mean n = 2, % of maximum activity of DMSO control, read-out: % Residual activity at 1 μM DYRK1A. The procedure:
(§1) Kinase activities were determined using the ADP-Glo methodology (ADP-Glo Kinase Assay; Promega) according to the assay described by Nguyen et al.[32] except for MmCLK1. The later was assayed in the following buffer: 10 mM MgCl2, 1 mM EGTA, 1 mM DTT, 25 mM Tris-HCl pH 7.5, 50 µg/ml heparin, 0.15 mg/ml BSA, with 0.027 µg/µl of the following peptide: GRSRSRSRSRSR as substrate.
(In general: ADP-Glo first removes unused ATP, then detects ADP through luciferase.)

The next data set concerns the target HsPIM1 (Homo sapiens, UniProt P11309). Briefly: ADP-Glo kinase assay. Type of data set: biochemical, Homo sapiens (Hs). The conditions noted are these: mean n = 2, % of maximum activity of DMSO control, read-out: % Residual activity at 1 μM PIM1. Here is the method:
as §1

The next data set has as its target HsCdk2/Cyc A (Homo sapiens, UniProt P24941). Briefly: ADP-Glo kinase assay. Type of data set: biochemical, Homo sapiens (Hs). The conditions noted are these: mean n = 2, % of maximum activity of DMSO control, read-out: % Residual activity at 1 μM CDK2. The procedure:
as §1

For another data set, the target named is HsGSK3β (Homo sapiens, UniProt P49841). Briefly: ADP-Glo kinase assay. Type of data set: biochemical, Homo sapiens (Hs). The conditions noted are these: mean n = 2, % of maximum activity of DMSO control, read-out: % Residual activity at 1 μM GSK3β. The procedure:
as §1

The target in another data set is HsCdk5/p25 (Homo sapiens, UniProt Q00535). Briefly: ADP-Glo kinase assay. The conditions noted are these: mean n = 2, % of maximum activity of DMSO control, read-out: % Residual activity at 1 μM CDK5. Type of data set: biochemical, Homo sapiens (Hs). Here is the method: as §1
The target of a further data set is HsCdk9/Cyc E (Homo sapiens, UniProt P50750). Briefly: ADP-Glo kinase assay. Type of data set: biochemical, Homo sapiens (Hs). The conditions noted are these: mean n = 2, % of maximum activity of DMSO control, read-out: % Residual activity at 1 μM CDK9. Here is the method:
as §1

A further data set concerns the target T1, HsHaspin (Homo sapiens, UniProt Q8TF76).
T1 sequence (Q8TF76 1-798): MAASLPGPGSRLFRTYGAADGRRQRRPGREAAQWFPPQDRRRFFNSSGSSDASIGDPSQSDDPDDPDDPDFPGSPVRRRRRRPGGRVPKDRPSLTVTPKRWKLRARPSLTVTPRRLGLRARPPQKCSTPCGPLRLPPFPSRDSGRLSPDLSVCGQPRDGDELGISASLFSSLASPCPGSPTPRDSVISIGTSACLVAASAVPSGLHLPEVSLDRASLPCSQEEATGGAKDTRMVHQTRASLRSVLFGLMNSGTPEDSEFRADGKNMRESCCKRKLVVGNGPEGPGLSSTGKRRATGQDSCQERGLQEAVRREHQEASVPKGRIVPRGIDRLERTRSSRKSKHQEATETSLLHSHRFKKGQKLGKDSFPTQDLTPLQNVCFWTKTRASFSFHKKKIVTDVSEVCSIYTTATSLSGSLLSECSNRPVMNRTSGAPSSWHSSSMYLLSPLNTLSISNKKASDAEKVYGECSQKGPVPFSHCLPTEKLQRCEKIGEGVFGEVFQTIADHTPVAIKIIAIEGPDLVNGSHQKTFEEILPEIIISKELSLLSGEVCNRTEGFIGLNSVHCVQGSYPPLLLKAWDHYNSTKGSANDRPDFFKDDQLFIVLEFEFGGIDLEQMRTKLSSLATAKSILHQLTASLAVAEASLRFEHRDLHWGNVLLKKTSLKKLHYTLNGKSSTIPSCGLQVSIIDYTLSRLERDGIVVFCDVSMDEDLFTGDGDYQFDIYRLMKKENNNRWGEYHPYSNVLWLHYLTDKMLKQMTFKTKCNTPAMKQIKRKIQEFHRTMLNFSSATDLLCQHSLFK
Briefly: ADP-Glo kinase assay. The conditions noted are these: for remaining activity at 1 µM: mean n = 2, % of maximum activity of DMSO control, read-out: % Residual activity at 1 μM Haspin; for IC50: dose-response curve, each point in duplicate, read-out: Kinase inhibition (IC50) Haspin. It is filed as biochemical, Homo sapiens (Hs). Here is the method: as §1

Data set [2] concerns U-2 OS, HCT116, MDA-MB231, SH-SY5Y and RPE-1 cell lines. Briefly: Cell viability primary screen at 25 μM. The conditions noted are these: 48 h. Type of data set: cell-based, human. The procedure:
(§2) HCT116 cells were cultured in McCoy’s medium. SH-SY5Y, MDA-MB231 and U-2 OS cells were cultured in Dulbecco's modified Eagle's medium (DMEM) and hTERT RPE-1 cells in DMEM:F12 medium. All media were supplemented with 10% foetal calf serum and cells were cultured at 37 °C in a 5% CO2 humidified atmosphere.
(§3) Cell viability was then assessed using the CellTiter96 AQueous cell proliferation assay from Promega according to the manufacturer’s instructions. Each experiment was done in triplicate and EC50 were determined from the dose-response curves according to the signal given by the control (0.1% DMSO) set at 100% viability using Prism GraphPad software.

The next data set addresses MmCLK1 (Mus musculus, UniProt P22518). Briefly: ADP-Glo kinase assay. Type of data set: biochemical, Mus musculus (Mm). The conditions noted are these: for remaining activity at 1 µM: mean n = 2, % of maximum activity of DMSO control, read-out: % Residual activity at 1 μM CLK1; for Selectivity index CLK1/Haspin: IC50 CLK1/IC50 Haspin; for IC50: dose-response curve, each point in duplicate, read-out: Kinase inhibition (IC50) CLK1. Here is the method: as §1

The next data set has as its system U-2 OS cell line. Briefly: Cell viability MTS assay, dose-response. Type of data set: cell-based. The conditions noted are these: Homo sapiens, U2OS; 48 h, MTS assay in triplicate, doses up to 50 µM. The procedure: as §2, §3
The test system of another data set is RPE1 cell line. Briefly: Cell viability MTS assay, dose-response. It is filed as cell-based. The conditions noted are these: Homo sapiens, RPE-1; 48 h, MTS assay in triplicate, doses up to 50 µM. Here is the method: as §2, §3
(In general: Tetrazolium dyes change colour on reduction, which living cells bring about.)

Chain of MmCLK1 (P22518 whole entry): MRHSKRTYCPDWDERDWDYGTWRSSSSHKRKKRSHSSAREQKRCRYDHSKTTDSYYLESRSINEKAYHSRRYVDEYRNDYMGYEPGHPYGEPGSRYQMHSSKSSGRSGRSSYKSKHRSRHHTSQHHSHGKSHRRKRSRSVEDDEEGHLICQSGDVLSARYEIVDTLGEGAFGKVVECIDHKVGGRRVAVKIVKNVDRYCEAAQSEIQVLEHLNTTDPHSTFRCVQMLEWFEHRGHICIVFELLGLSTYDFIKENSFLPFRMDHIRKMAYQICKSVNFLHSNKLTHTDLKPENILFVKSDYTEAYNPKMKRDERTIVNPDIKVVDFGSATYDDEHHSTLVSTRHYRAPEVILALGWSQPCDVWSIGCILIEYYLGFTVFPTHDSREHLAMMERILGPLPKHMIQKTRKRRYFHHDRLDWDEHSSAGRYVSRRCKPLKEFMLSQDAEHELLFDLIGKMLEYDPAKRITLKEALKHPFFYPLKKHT
Chain of HsCdk5/p25 (Q00535 whole entry): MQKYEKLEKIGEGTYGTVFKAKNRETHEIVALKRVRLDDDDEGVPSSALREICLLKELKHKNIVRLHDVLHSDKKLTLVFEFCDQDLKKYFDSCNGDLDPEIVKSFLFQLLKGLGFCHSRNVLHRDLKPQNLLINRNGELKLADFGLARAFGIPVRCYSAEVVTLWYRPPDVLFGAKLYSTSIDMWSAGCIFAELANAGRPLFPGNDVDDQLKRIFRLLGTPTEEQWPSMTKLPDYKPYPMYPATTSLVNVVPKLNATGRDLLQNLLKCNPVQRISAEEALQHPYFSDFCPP
Chain of HsCdk5/p25 (Q15078 99-307 partner limits assumed): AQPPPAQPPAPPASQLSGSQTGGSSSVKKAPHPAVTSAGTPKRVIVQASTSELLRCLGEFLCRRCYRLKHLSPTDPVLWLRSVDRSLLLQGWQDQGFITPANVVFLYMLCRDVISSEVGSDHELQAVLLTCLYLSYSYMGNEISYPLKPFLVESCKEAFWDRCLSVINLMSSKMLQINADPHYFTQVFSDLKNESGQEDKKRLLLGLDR
Chain of HsGSK3β (P49841 whole entry): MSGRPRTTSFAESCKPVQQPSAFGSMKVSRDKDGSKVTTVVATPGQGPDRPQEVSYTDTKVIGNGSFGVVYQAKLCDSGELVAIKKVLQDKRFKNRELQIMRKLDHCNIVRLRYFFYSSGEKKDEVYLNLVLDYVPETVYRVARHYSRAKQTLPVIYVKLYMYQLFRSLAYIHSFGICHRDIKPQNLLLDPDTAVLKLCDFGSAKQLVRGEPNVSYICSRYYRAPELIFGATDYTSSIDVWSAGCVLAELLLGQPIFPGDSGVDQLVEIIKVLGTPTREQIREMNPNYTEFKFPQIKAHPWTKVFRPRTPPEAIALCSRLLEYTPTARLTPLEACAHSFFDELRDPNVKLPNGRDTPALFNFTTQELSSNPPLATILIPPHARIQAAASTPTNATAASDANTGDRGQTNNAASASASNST
Chain of HsCdk9/Cyc E (P50750 whole entry): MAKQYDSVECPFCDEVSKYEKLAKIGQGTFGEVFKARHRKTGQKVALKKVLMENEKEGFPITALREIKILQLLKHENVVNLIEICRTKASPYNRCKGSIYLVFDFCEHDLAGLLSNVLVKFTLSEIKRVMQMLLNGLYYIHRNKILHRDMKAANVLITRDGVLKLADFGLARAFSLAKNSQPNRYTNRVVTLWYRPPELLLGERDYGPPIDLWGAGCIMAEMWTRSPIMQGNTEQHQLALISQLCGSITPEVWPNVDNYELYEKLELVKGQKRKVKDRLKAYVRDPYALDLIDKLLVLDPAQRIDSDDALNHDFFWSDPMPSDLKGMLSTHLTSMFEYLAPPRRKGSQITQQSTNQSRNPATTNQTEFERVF
Chain of HsCdk9/Cyc E (O60563 whole entry partner): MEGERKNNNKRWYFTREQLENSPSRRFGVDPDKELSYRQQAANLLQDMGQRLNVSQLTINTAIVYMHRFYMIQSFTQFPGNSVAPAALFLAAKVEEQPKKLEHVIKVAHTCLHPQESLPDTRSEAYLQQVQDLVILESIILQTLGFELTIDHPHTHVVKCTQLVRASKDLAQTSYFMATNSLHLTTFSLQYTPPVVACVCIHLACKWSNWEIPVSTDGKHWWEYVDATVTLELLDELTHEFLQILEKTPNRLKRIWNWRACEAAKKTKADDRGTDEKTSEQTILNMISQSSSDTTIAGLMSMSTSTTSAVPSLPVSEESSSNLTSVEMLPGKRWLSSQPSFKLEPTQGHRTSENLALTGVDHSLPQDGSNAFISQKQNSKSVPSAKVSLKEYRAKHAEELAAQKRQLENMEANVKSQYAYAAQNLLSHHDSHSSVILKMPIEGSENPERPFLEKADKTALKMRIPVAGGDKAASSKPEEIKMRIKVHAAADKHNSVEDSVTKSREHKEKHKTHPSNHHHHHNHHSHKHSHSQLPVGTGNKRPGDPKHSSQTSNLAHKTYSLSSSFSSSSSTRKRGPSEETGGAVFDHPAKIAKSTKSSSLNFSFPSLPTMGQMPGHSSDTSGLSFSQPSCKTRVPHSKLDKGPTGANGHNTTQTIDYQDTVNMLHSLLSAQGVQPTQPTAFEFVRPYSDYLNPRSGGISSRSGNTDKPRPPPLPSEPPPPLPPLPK
Chain of HsPIM1 (P11309 whole entry): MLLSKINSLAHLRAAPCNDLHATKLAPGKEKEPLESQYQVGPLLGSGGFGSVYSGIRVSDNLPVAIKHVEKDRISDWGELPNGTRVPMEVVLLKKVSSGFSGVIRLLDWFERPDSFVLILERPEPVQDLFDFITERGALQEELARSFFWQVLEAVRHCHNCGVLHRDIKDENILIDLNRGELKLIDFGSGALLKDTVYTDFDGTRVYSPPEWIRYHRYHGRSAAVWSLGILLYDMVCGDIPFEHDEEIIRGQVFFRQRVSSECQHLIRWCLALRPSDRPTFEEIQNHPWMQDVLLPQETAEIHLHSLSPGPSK

Take `CCCNc1ccc2ncc(-c3ccc4[nH]ncc4c3)n2n1` [CHR-6494, reference compound]: the “% of cycling cells G2/M” value with U-2 OS cells (DMSO control 6%) came out at 17%. The “% of cycling cells S” value in the data set on U-2 OS cells (DMSO control 44%) worked out at 38%. In the data set with U-2 OS cells (DMSO control 50%), the “% of cycling cells G1” value is on record as 45%.
Consider `O=c1oc2ccc(O)cc2c2c1[nH]c1ccccc12` [Compound 1a], for which, in [1], the “Stability in basic media” value is “instability in basic media”.
On to `O=c1oc2ccc(O)cc2c2c1[nH]c1cc(O)ccc12` [Compound 1b], for which the “Stability in basic media” value in [1] was “instability in basic media”.
Regarding `COc1ccc2[nH]c3c(=O)[nH]c4ccc(N)cc4c3c2c1` [Compound 56, 2-Amino-10-methoxy-5,7-dihydro-6H-indolo[2,3-c]quinolin-6-one], the melting point was above 250 °C. For the same compound, on RnDYRK1A, the “Selectivity index DYRK/Haspin” value turned out to be 16, the IC50 stood at 226 nM and the remaining activity amounted to 7%. Also, the remaining activity at 1 µM at HsPIM1 is 65%. In addition, the remaining activity at 1 µM on HsCdk2/Cyc A is 72%. The remaining activity at 1 µM at HsGSK3β worked out at 39%. The remaining activity at 1 µM at HsCdk5/p25 worked out at 79%. The remaining activity at 1 µM on HsCdk9/Cyc E was found to be 37%. Also, on HsHaspin, the remaining activity at 1 µM was determined as 2% and the IC50 came out at 14 nM. Besides, in [2] (all tested cell lines), the “Effect on cell viability, primary screen” value is “little to no effect”. Moreover, at MmCLK1, the remaining activity at 1 µM was 3%, the “Selectivity index CLK1/Haspin” value is 15 and the IC50 stood at 213 nM. In addition, the EC50 with U-2 OS cell line is above 25000 nM. This compound also yielded an EC50 in the data set with RPE1 cell line above 25000 nM.
With `O=c1[nH]c2ccc(O)cc2c2c1[nH]c1ccc(F)cc12` [Compound 61, 10-Fluoro-2-Hydroxy-5,7-dihydro-6H-indolo [2,3-c]quinolin-6-one], the melting point is 240 to 243 °C. Further, on RnDYRK1A, the “Selectivity index DYRK/Haspin” value turned out to be 21, the IC50 was 104 nM and the remaining activity was found to be 9%. Further, the remaining activity at 1 µM on HsPIM1 amounted to 38%. Also, on HsCdk2/Cyc A, the remaining activity at 1 µM stood at 57%. In addition, the remaining activity at 1 µM at HsGSK3β worked out at 71%. Further, at HsCdk5/p25, the remaining activity at 1 µM worked out at 91%. For the same compound, the remaining activity at 1 µM on HsCdk9/Cyc E was 41%. Moreover, on HsHaspin, the remaining activity at 1 µM turned out to be 0% and the concentration for half-maximal inhibition (IC50) amounted to 5 nM. The “Reduction of cell viability compared to the DMSO control” value in data set [2] is reported as at least 75%. On MmCLK1, the remaining activity at 1 µM stood at 2%, the “Selectivity index CLK1/Haspin” value turned out to be 16 and the IC50 turned out to be 78 nM. Besides, in the data set with U-2 OS cell line, the EC50 was 8700 nM. For the same compound, the half-maximal effective concentration (EC50) with RPE1 cell line turned out to be 19100 nM.
